Drawing on ChEMBL document CHEMBL4266059, “Synthesis of Cyanoenone-Modified Diterpenoid Analogs as Novel Bmi-1-Mediated Antitumor Agents” (ACS Med Chem Lett, 2018), this text covers IC50, selectivity ratio and inhibition for 19 compounds.

Activity calls are given as the source filed them. The calls are words filed in the database; no cut-off is given here.

The IC50 is the concentration needed to halve the response being measured.

The test system of series [1] is HCT-116. The series can be described thus: Antiproliferative activity against human HCT116 cells after 72 hrs by SRB assay. The series is classed as functional, cell-based. The conditions noted are these: HCT-116, 72 h. A general note: The SRB assay estimates cell density from bound dye.
The subject of another series is HT-29. The series can be described thus: Antiproliferative activity against human HT-29 cells after 72 hrs by SRB assay. The series is classed as functional, cell-based. The conditions noted are these: HT-29, 72 h.
A short description of series [2]: Selectivity index, ratio of IC50 for HAF to IC50 for human HCT116 cells. In kind it is toxicity. The conditions noted are these: HAF cells versus HCT116 cells, read-out: Ratio IC50.
Series [3] in a line: Antiproliferative activity against HAF after 72 hrs by SRB assay. On the set-up: species or system Homo sapiens.
A further series has as its system HCT-8. The series can be described thus: Antiproliferative activity against human HCT8 cells after 72 hrs by SRB assay. In kind it is functional, cell-based. The conditions noted are these: HCT-8, 72 h.
Series [4] is described as follows: Selectivity index, ratio of IC50 for HAF to IC50 for human HT-29 cells. The series is classed as toxicity. The conditions noted are these: HAF cells versus HT-29 cells, read-out: Ratio IC50.
Series [5] can be described thus: Selectivity index, ratio of IC50 for HAF to IC50 for human HCT8 cells. The series is classed as toxicity. The conditions noted are these: HAF cells versus HCT8 cells, read-out: Ratio IC50.
The test system of series [6] is HCT-116. Briefly: Inhibition of Bmi1 protein expression in human HCT116 cells after 8 hrs by Western blot analysis. In kind it is functional, cell-based. (In western blotting, separated proteins are transferred to a membrane and probed.)

Take `COc1cc2c(cc1C(=O)NCC(=O)O)CC[C@H]1C(C)(C)C(=O)C(C#N)=C[C@]21C`: the half-maximal inhibitory concentration (IC50) in the series on HCT-116 [1] is above 50 µM.
Consider `COc1cc2c(cc1C(=O)Nc1cccc(OC(F)(F)F)c1)CC[C@H]1C(C)(C)C(=O)C(C#N)=C[C@]21C`, for which the 50% inhibitory concentration (IC50) in the series on HT-29 stood at 0.56 µM; in the series on HCT-116 [1] it was 0.43 µM; in series [3] it was 3.57 µM; with HCT-8, 0.58 µM. Also, the selectivity ratio in series [2], in series [4] and in series [5] was 6.2 to 8.3 throughout.
Compound `COc1cc2c(cc1C(=O)Nc1ccc(C#N)cc1)CC[C@H]1C(C)(C)C(=O)C(C#N)=C[C@]21C` showed a 50% inhibitory concentration (IC50) in the series with HCT-116 [1] of 0.57 µM. This counts as sub-micromolar.
With `COc1cc2c(cc1C(=O)NCc1ccc(OC(F)(F)F)cc1)CC[C@H]1C(C)(C)C(=O)C(C#N)=C[C@]21C`, the IC50 was 1.37 µM with HT-29, 1.04 µM with HCT-116 [1], 5.19 µM in series [3] and 1.6 µM in the series with HCT-8. Further, the selectivity ratio in series [2], in series [4] and in series [5] was 3.2 to 5 throughout.
In turn, `COc1cc2c(cc1C(=O)Nc1ccc(Cl)cc1)CC[C@H]1C(C)(C)C(=O)C(C#N)=C[C@]21C` had a half-inhibitory concentration (IC50) in the series on HCT-116 [1] of 0.67 µM.
`COc1cc2c(cc1C(=O)Nc1ccc(N)cc1)CC[C@H]1C(C)(C)C(=O)C(C#N)=C[C@]21C`: the IC50 with HCT-116 [1] is 0.75 µM. This IC50 and that of the compound before are within 1.5-fold of each other.
In the case of `CC1(C)C(=O)C(C#N)=C[C@]2(C)c3cc(O)c(C(=O)Nc4ccc(OC(F)(F)F)cc4)cc3CC[C@@H]12`, the IC50 came out at 2.38 µM with HT-29, 2 µM in the series on HCT-116 [1], 13.8 µM in series [3] and 3.06 µM in the series with HCT-8. For the same compound, the selectivity ratio in series [2], in series [4] and in series [5] was 4.5 to 6.9 in each case. Moreover, the inhibition entry in the series on HCT-116 [6] was “inactive”.
In the series on HCT-116 [1], `COC(=O)c1ccc(NC(=O)c2cc3c(cc2OC)[C@@]2(C)C=C(C#N)C(=O)C(C)(C)[C@@H]2CC3)cc1` registered an IC50 of 0.69 µM.
The same measure, in the same setting: the value for `COc1cc2c(cc1C(=O)Nc1ccc(C(F)(F)F)cc1)CC[C@H]1C(C)(C)C(=O)C(C#N)=C[C@]21C` was 0.32 µM.
As for `COc1cc2c(cc1C(=O)NNc1ccc(OC(F)(F)F)cc1)CC[C@H]1C(C)(C)C(=O)C(C#N)=C[C@]21C`, the 50% inhibitory concentration (IC50) was determined as 1.62 µM in the series on HT-29, 0.9 µM with HCT-116 [1], 4.55 µM in series [3] and 1.31 µM in the series with HCT-8. In addition, the selectivity ratio in series [2], in series [4] and in series [5] was 2.8 to 5 each time.
Regarding `COc1cc2c(cc1C(=O)Nc1ccc(Br)cc1)CC[C@H]1C(C)(C)C(=O)C(C#N)=C[C@]21C`, the 50% inhibitory concentration (IC50) in the series on HCT-116 [1] was found to be 0.53 µM.
`COc1cc2c(cc1C(=O)Nc1ccc(C(N)=O)cc1)CC[C@H]1C(C)(C)C(=O)C(C#N)=C[C@]21C` displayed an IC50 in the series on HCT-116 [1] of 0.85 µM.
In the series on HCT-116 [1], `CNC(=O)c1cc2c(cc1OC)[C@@]1(C)C=C(C#N)C(=O)C(C)(C)[C@@H]1CC2` returned an IC50 of 8.54 µM.
On the same count and under the same terms, to `COc1cc2c(cc1C(=O)Nc1ccccc1)CC[C@H]1C(C)(C)C(=O)C(C#N)=C[C@]21C` belongs 0.76 µM.
The compound `COc1cc2c(cc1C(=O)Nc1ccc(C(C)=O)cc1)CC[C@H]1C(C)(C)C(=O)C(C#N)=C[C@]21C` registered an IC50 in the series with HCT-116 [1] of 2.1 µM. Besides, in the series on HCT-116 [6], the inhibition result is “Active”.
`C=CCOc1ccc(NC(=O)c2cc3c(cc2OC)[C@@]2(C)C=C(C#N)C(=O)C(C)(C)[C@@H]2CC3)cc1` yielded an IC50 with HCT-116 [1] of 0.56 µM.
The same measure, in the same setting: to `COc1cc2c(cc1C(=O)Oc1ccccc1)CC[C@H]1C(C)(C)C(=O)C(C#N)=C[C@]21C` belongs 1.31 µM.
Compound `COc1cc2c(cc1C(=O)O)CC[C@H]1C(C)(C)C(=O)C(C#N)=C[C@]21C` registered a half-inhibitory concentration (IC50) with HCT-116 [1] above 50 µM.
For the compound `CCOc1ccc(NC(=O)c2cc3c(cc2OC)[C@@]2(C)C=C(C#N)C(=O)C(C)(C)[C@@H]2CC3)cc1`, in the series with HCT-116 [1], the midpoint of inhibition, the IC50, lay at 0.82 µM. This lies in the sub-micromolar range.
